Paper PMC12398837 (Journal of Pharmaceutical Analysis, 2025)
Structures can show the parent of a compound that is named as a salt. Where two headings read alike, the source gives them in different places.

How the values were obtained:
hDAT = biological target: T1, hDAT (Homo sapiens, UniProt Q01959); assay: Neurotransmitter Transporter Uptake Assay Kit, DA reuptake inhibition; format: cell-based; conditions: Table 1; inhibition of dopamine reuptake, reduction of RFU
T1 construct: expressed in transfected cells; host or cells: HEK-293T (HEK293T), stably transfected
T1 sequence (Q01959 whole entry): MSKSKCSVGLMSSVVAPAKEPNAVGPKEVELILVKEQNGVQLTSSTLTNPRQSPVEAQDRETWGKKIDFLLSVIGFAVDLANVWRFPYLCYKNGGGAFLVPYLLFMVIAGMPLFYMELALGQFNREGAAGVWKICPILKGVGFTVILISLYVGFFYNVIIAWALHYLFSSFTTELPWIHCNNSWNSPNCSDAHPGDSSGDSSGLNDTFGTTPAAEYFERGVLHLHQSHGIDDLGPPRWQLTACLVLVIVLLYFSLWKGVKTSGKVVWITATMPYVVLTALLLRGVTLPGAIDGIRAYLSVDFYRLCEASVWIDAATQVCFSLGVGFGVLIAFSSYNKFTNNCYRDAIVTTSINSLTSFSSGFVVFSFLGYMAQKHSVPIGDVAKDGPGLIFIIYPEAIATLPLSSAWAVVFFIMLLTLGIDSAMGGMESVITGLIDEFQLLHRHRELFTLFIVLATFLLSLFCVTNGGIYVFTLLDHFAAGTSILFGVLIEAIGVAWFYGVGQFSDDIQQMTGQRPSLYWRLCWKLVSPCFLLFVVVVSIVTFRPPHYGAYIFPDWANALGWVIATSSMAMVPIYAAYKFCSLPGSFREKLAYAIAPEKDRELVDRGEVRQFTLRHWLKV
Description: DA uptake activity was measured using a Neurotransmitter Transporter Uptake Assay Kit (Molecular Devices, San Jose, CA, USA). […] 2-[4-(2-hydroxyethyl)-1-piperazinyl] ethanesulfonic acid (HEPES) buffer solution (150 mM NaCl, 5 mM KCl, 10 mM glucose, 2 mM CaCl2, 1 mM MgCl2, 10 mM HEPES, pH 7.4) was used to wash cells three times before the experiment. Cells in the experimental group were treated with six different compounds. After 15 min, the dye solution was added and the fluorescence intensity was measured for 30 min in the 520 nm range with excitation at 440 nm. The inhibition percentages were calculated using the end point measurements at 30 min. The four-parameter logistic nonlinear regression model was used to determine the half maximal inhibitory concentration (IC50) values.
The DA reuptake inhibitory activities of the six repurposed drugs were evaluated using the Neurotransmitter Transporter Uptake Assay Kit through dose-response assays. This assay employs a novel fluorescent indicator dye designed to mimic neurotransmitters, along with a masking dye to quench extracellular fluorescence, enabling precise measurement of transporter-mediated uptake activity.

[1] = cited from earlier work

Which results are given for `CCCCN1CCCC[C@H]1C(=O)Nc1c(C)cccc1C` [Compound 19, Levobupivacaine]?
IC50 (hDAT): 1210 nM; CNS and cardiac toxicity ([1]; particularly under acidosis and hyperkalemia): mild CNS and cardiac toxicity

For `Cc1cccc(C)c1NC(=O)C1CCCCN1C` (stereo not drawn) [Compound 14, Mepivacaine hydrochloride], which IC50 (hDAT) is on record?
Its IC50 is 542 nM.

And the metabolism ([1]; restricts application to peripheral nerve blockade)?
The metabolism was “rapid metabolism”.

What does the source list for `CCCN1CCCC[C@H]1C(=O)Nc1c(C)cccc1C` [Compound 4, Ropivacaine]?
IC50 (hDAT): 753 nM; CNS and cardiac toxicity ([1]; previous research): mild CNS and cardiac toxicity
